Test results from BigSolDB 2.1.

O=P(O)(CO)c1ccccc1
Conditions	solubility (mole fraction)
in 2-butanone, 288.15 K	0.0013
in 2-butanone, 293.16 K	0.0015
in 2-butanone, 298.17 K	0.0017
in 2-butanone, 303.18 K	0.0019
in 2-butanone, 308.14 K	0.0022
in 2-butanone, 313.16 K	0.0024
in 2-butanone, 318.17 K	0.0027
in 2-butanone, 323.16 K	0.0029
in 2-butanone, 328.17 K	0.0033
in 2-butanone, 333.16 K	0.0037
in 2-ethoxyethanol, 293.16 K	0.0461
in 2-ethoxyethanol, 298.17 K	0.0512
in 2-ethoxyethanol, 303.18 K	0.0571
in 2-ethoxyethanol, 308.14 K	0.0638
in 2-ethoxyethanol, 313.16 K	0.0709
in 2-ethoxyethanol, 318.17 K	0.0777
in 2-ethoxyethanol, 323.16 K	0.0849
in 2-ethoxyethanol, 328.16 K	0.0937
in 2-ethoxyethanol, 333.15 K	0.102
in acetone, 288.15 K	0.0013
in acetone, 293.16 K	0.0015
in acetone, 298.17 K	0.0017
in acetone, 303.18 K	0.002
in acetone, 308.14 K	0.0023
in acetone, 313.16 K	0.0026
in acetone, 318.17 K	0.003
in acetone, 323.16 K	0.0035
in benzene, 293.16 K	0.0009
in benzene, 298.17 K	0.0011
in benzene, 303.18 K	0.0013
in benzene, 308.14 K	0.0016
in benzene, 313.16 K	0.0019
in benzene, 318.17 K	0.0022
in benzene, 323.16 K	0.0027
in benzene, 328.16 K	0.0032
in benzene, 333.15 K	0.0037
in cyclohexane, 288.15 K	0.001
in cyclohexane, 293.16 K	0.0011
in cyclohexane, 298.17 K	0.0012
in cyclohexane, 303.18 K	0.0013
in cyclohexane, 308.14 K	0.0014
in cyclohexane, 313.16 K	0.0015
in cyclohexane, 318.17 K	0.0016
in cyclohexane, 323.16 K	0.0017
in cyclohexane, 328.17 K	0.0018
in cyclohexane, 333.16 K	0.0019
in dichloromethane, 293.16 K	0.00061
in dichloromethane, 296.17 K	0.00079
in dichloromethane, 301.13 K	0.00119
in dichloromethane, 303.14 K	0.00143
in dichloromethane, 305.15 K	0.00169
in diethyl ether, 293.16 K	0.00113
in diethyl ether, 296.17 K	0.00138
in diethyl ether, 301.13 K	0.00188
in diethyl ether, 303.14 K	0.00212
in diethyl ether, 305.15 K	0.00238
in toluene, 288.15 K	0.001
in toluene, 293.16 K	0.0011
in toluene, 298.17 K	0.0013
in toluene, 303.18 K	0.0015
in toluene, 308.14 K	0.0018
in toluene, 313.16 K	0.002
in toluene, 318.17 K	0.0023
in toluene, 323.16 K	0.0026
in toluene, 328.17 K	0.0029
in toluene, 333.16 K	0.0033
in water, 307.45 K	0.0099
in water, 317.46 K	0.0206
in water, 327.57 K	0.0424
in water, 338.15 K	0.0966
in water, 342.45 K	0.117
in water, 346.58 K	0.166
in water, 352.8 K	0.247
in water, 357.11 K	0.312

O=C(O)CCP(=O)(O)c1ccccc1
Conditions	solubility (mole fraction)
in 2-butanone, 293.16 K	0.00061
in 2-butanone, 298.17 K	0.00077
in 2-butanone, 303.18 K	0.00103
in 2-butanone, 308.14 K	0.00127
in 2-butanone, 313.16 K	0.00163
in 2-butanone, 318.17 K	0.00206
in 2-butanone, 323.16 K	0.00253
in 2-butanone, 328.16 K	0.00316
in 2-butanone, 333.15 K	0.00395
in 2-ethoxyethanol, 293.16 K	0.0461
in 2-ethoxyethanol, 298.17 K	0.0512
in 2-ethoxyethanol, 303.18 K	0.0571
in 2-ethoxyethanol, 308.14 K	0.0638
in 2-ethoxyethanol, 313.16 K	0.0709
in 2-ethoxyethanol, 318.17 K	0.0777
in 2-ethoxyethanol, 323.16 K	0.0849
in 2-ethoxyethanol, 328.16 K	0.0937
in 2-ethoxyethanol, 333.15 K	0.102
in acetic acid, 293.16 K	0.0105
in acetic acid, 298.17 K	0.0116
in acetic acid, 303.18 K	0.013
in acetic acid, 308.14 K	0.0147
in acetic acid, 313.16 K	0.0164
in acetic acid, 318.17 K	0.0182
in acetic acid, 323.16 K	0.0205
in acetic acid, 328.16 K	0.0225
in acetic acid, 333.15 K	0.0249
in acetone, 293.16 K	0.00074
in acetone, 298.17 K	0.00093
in acetone, 303.18 K	0.00124
in acetone, 308.14 K	0.00153
in acetone, 313.16 K	0.00197
in acetone, 318.17 K	0.00248
in acetone, 323.16 K	0.00305
in acetonitrile, 293.16 K	6e-05
in acetonitrile, 298.17 K	0.0001
in acetonitrile, 303.18 K	0.00015
in acetonitrile, 308.14 K	0.00023
in acetonitrile, 313.16 K	0.00035
in acetonitrile, 318.17 K	0.00053
in acetonitrile, 323.16 K	0.00078
in acetonitrile, 328.16 K	0.00109
in acetonitrile, 333.15 K	0.00161
in benzene, 293.16 K	0.00081
in benzene, 298.17 K	0.00091
in benzene, 303.18 K	0.00099
in benzene, 308.14 K	0.00107
in benzene, 313.16 K	0.00114
in benzene, 318.17 K	0.00126
in benzene, 323.16 K	0.00134
in benzene, 328.16 K	0.00145
in benzene, 333.15 K	0.00156
in chloroform, 288.15 K	0.00021
in chloroform, 293.16 K	0.00026
in chloroform, 298.17 K	0.00033
in chloroform, 303.18 K	0.00041
in chloroform, 308.14 K	0.00052
in chloroform, 313.16 K	0.00063
in chloroform, 318.17 K	0.00079
in chloroform, 323.16 K	0.00093
in chloroform, 328.16 K	0.00112
in chloroform, 333.15 K	0.00133
in cyclohexane, 293.16 K	0.00088
in cyclohexane, 298.17 K	0.00108
in cyclohexane, 303.18 K	0.00128
in cyclohexane, 308.14 K	0.00157
in cyclohexane, 313.16 K	0.00186
in cyclohexane, 318.17 K	0.00222
in cyclohexane, 323.16 K	0.00263
in cyclohexane, 328.16 K	0.00314
in cyclohexane, 333.15 K	0.00371
in dichloromethane, 288.15 K	0.00029
in dichloromethane, 293.16 K	0.00042
in dichloromethane, 298.17 K	0.00059
in dichloromethane, 303.18 K	0.0008
in dichloromethane, 308.14 K	0.00111
in dichloromethane, 313.16 K	0.00149
in ethyl acetate, 293.16 K	0.00128
in ethyl acetate, 298.17 K	0.00148
in ethyl acetate, 303.18 K	0.00162
in ethyl acetate, 308.14 K	0.00182
in ethyl acetate, 313.16 K	0.00202
in ethyl acetate, 318.17 K	0.00226
in ethyl acetate, 323.16 K	0.00254
in ethyl acetate, 328.16 K	0.00281
in ethyl acetate, 333.15 K	0.00311
in toluene, 293.16 K	0.00051
in toluene, 298.17 K	0.00059
in toluene, 303.18 K	0.00068
in toluene, 308.14 K	0.00079
in toluene, 313.16 K	0.00092
in toluene, 318.17 K	0.00105
in toluene, 323.16 K	0.00119
in toluene, 328.16 K	0.00138
in toluene, 333.15 K	0.00154
in water, 298.25 K	0.00178
in water, 308.66 K	0.00366
in water, 318.07 K	0.00671
in water, 327.17 K	0.0133
in water, 337.55 K	0.0249
in water, 342.75 K	0.0339
in water, 345.06 K	0.0412
in water, 349.47 K	0.0568

COc1ccc(P(c2ccc(OC)cc2)c2ccc(OC)cc2)cc1
Conditions	solubility (mole fraction)
in 2-butanone, 293.16 K	0.00621
in 2-butanone, 298.17 K	0.00684
in 2-butanone, 303.18 K	0.00749
in 2-butanone, 308.14 K	0.00815
in 2-butanone, 313.16 K	0.00884
in 2-butanone, 318.17 K	0.00962
in 2-butanone, 323.16 K	0.0103
in 2-butanone, 328.17 K	0.0113
in 2-butanone, 333.16 K	0.0121
in 2-ethoxyethanol, 293.16 K	0.00522
in 2-ethoxyethanol, 298.17 K	0.00693
in 2-ethoxyethanol, 303.18 K	0.00862
in 2-ethoxyethanol, 308.14 K	0.0108
in 2-ethoxyethanol, 313.16 K	0.0136
in 2-ethoxyethanol, 318.17 K	0.0168
in 2-ethoxyethanol, 323.16 K	0.0209
in 2-ethoxyethanol, 328.17 K	0.0255
in 2-ethoxyethanol, 333.16 K	0.0311
in 2-ethoxyethanol, 338.17 K	0.0377
in 2-ethoxyethanol, 343.15 K	0.0454
in benzene, 293.16 K	0.00029
in benzene, 298.17 K	0.00037
in benzene, 303.18 K	0.00045
in benzene, 308.14 K	0.00054
in benzene, 313.16 K	0.00068
in benzene, 318.17 K	0.00082
in benzene, 323.16 K	0.00099
in cyclohexane, 299.15 K	0.00054
in cyclohexane, 304.05 K	0.00082
in cyclohexane, 308.85 K	0.00107
in cyclohexane, 313.95 K	0.00151
in cyclohexane, 318.45 K	0.00231
in cyclohexane, 323.65 K	0.00326
in cyclohexane, 328.45 K	0.00436
in cyclohexane, 332.85 K	0.00596
in cyclohexane, 337.65 K	0.00848
in diethyl ether, 293.16 K	0.00587
in diethyl ether, 296.17 K	0.00721
in diethyl ether, 299.18 K	0.00889
in diethyl ether, 301.16 K	0.0101
in diethyl ether, 303.15 K	0.0114
in ethanol, 293.16 K	0.00084
in ethanol, 298.17 K	0.00102
in ethanol, 303.18 K	0.00121
in ethanol, 308.14 K	0.00142
in ethanol, 313.16 K	0.00173
in ethanol, 318.17 K	0.00202
in ethanol, 323.16 K	0.00241
in methanol, 293.16 K	0.00022
in methanol, 298.17 K	0.00029
in methanol, 303.18 K	0.0004
in methanol, 308.14 K	0.00051
in methanol, 313.16 K	0.00066
in methanol, 318.17 K	0.00083
in methanol, 323.16 K	0.00107
in toluene, 293.16 K	0.00035
in toluene, 298.17 K	0.00042
in toluene, 303.18 K	0.00051
in toluene, 308.14 K	0.00061
in toluene, 313.16 K	0.00075
in toluene, 318.17 K	0.00089
in toluene, 323.16 K	0.00105
in toluene, 328.17 K	0.00123
in toluene, 333.15 K	0.00145
